In patent publication US7803378B2, “Antigen imitating extracellular areas of membrane proteins of type III produced from intracellular pathogenic micro-organisms, derived conformational antibodies and the use thereof” (priority 2003, dated 2010):

What was measured:
[1] = system: extracellular domains of the LMP1 protein; assay: Immunogenic potency of LMP1 antigens: serum antibodies by ELISA after immunization; format: in vivo, EBV; details: mice immunized with LMP1-derived peptide coupled to KLH or lipid
Description: (§1) The LMP1-derived peptides containing only one exogenous cystein (SEQ ID Nos 10, 11, 12, 15, 16) were individually coupled to activated KLH (Imject maleimide-activated KLH®, Perbio) according to the supplier's protocol. Mice (4 animals per group) were injected subcutaneously in the flank, with an emulsion of peptide (50 μg in 0.1 ml H20) and of complete Freund's adjuvant (0.1 ml). On days 21, 42 and 62 following the first injection (D0), the animals are given a boost injection, by the same route, with the same amount of antigen but in incomplete Freund's adjuvant. […]
(§2) Blood samples are taken, by retro-orbital puncture, from the immunized mice, and the sera are then recovered and frozen at −20° C. in 20-μl fractions. […] The reaction is stopped by adding 4N sulfuric acid, and the absorption at 492 nm is measured using an automatic microplate reader (Dynatech).
Antibodies directed against the extracellular domains of the EBV LMP1 protein were prepared by immunization of mice with the peptides SEQ ID Nos 10 and 11 coupled to KLH, or else with the peptide SEQ ID No. 13 coupled to cholesterol, as described in example 1. The kinetics of appearance of the serum antibodies directed against the extracellular domains of the LMP1 protein were analyzed by ELISA, as described in example 1.

[2] = system: extracellular domains of the LMP2A protein; assay: Immunogenic potency of the LMP2A antigens in mice and rats (ELISA); format: in vivo, EBV; details: comparison of LMP2A peptides SEQ ID Nos 15, 16, 17
Description: as §1, §2
Antibodies directed against the extracellular domains of the LMP2A proteins were prepared by immunization of batches of 4 BALB/c mice or of batches of 3 LOU/M rats with the peptides SEQ ID Nos 15, 16 and 17 coupled to activated KLH as described in example 1. The response in terms of antibodies directed against the extracellular domains of the LMP2A protein was analyzed by ELISA, as described in example 1.

Substance | Immunogenic Potency [1] | humoral response [2]
SEQ ID No: 14: LMP1-(ED1 + ED2 + ED3) with linking residues between domains (MSDWTGGALCLWNLHGQALCLYLQQNWWT; Epstein Barr Virus) | +(IgM) | 
TWRIEDPPFNSLCVDAVLQLSPL [SEQ ID No. 16] |  | best humoral response
